{
  "source": "patent US20150259747A1",
  "about": "“METHOD OF PREDICTING A PREDISPOSITION TO QT PROLONGATION” (priority 2007, published 2015)",
  "tested_on": "individuals genotyped at the rs993648 locus",
  "assay": "QT interval change after two weeks of oral iloperidone in 174 individuals genotyped at the CERKL rs993648 locus",
  "assay_type": "in vivo, human",
  "settings": "iloperidone 24 mg/day B.I.D. oral; for High QT, - test (number of individuals) / Low QT, - test (number of individuals): rs993648 genotype AB (- test); for High QT, - test (number of individuals) / High QT, + test (number of individuals) / Low QT, - test (number of individuals) / Low QT, + test (number of individuals): n=174; for High QT, + test (number of individuals) / Low QT, + test (number of individuals): rs993648 genotype non-AB (+ test)",
  "protocol": "Since the QT interval changes with changes in heart rate, the QT interval is often measured as a corrected QT (QTc) interval. Any number of formulas may be employed to calculate the QTc, including, for example, the Fridericia formula (QTcF), the Bazett formula (QTcB), and the Rautaharju formula (QTp), among others. In the studies described herein, QT was calculated using the Fridericia formula. However, the present invention includes the use of any such formula or method for calculating a QTc or an uncorrected QT. Using the genotypes at the SNP loci above, it is possible, with a high degree of certainty, to predict an individual's predisposition to QT prolongation.",
  "key": {"[1]": {"settings": "QTc change threshold >5 msec not exceeded"}, "[2]": {"settings": "QTc change threshold >15 msec not exceeded"}, "[3]": {"settings": "QTc change threshold >30 msec not exceeded"}},
  "data": [
    {"smiles": "COc1cc(C(C)=O)ccc1OCCCN1CCC(c2noc3cc(F)ccc23)CC1", "note": "[iloperidone]", "values": [
      {"measurement": "Odds Ratio", "setting": "QTc change >5 msec vs rs993648 non-AB genotype", "value": 3.62},
      {"measurement": "High QT, - test (number of individuals)", "setting": "QTc change >5 msec", "value": 38},
      {"measurement": "High QT, + test (number of individuals)", "setting": "QTc change >5 msec", "value": 72},
      {"measurement": "Odds Ratio", "setting": "QTc change >15 msec vs rs993648 non-AB genotype", "value": 4.45},
      {"measurement": "High QT, - test (number of individuals)", "setting": "QTc change >15 msec", "value": 18},
      {"measurement": "High QT, + test (number of individuals)", "setting": "QTc change >15 msec", "value": 53},
      {"measurement": "Odds Ratio", "setting": "QTc change >30 msec vs rs993648 non-AB genotype", "value": 6.16},
      {"measurement": "High QT, - test (number of individuals)", "setting": "QTc change >30 msec", "value": 4},
      {"measurement": "High QT, + test (number of individuals)", "setting": "QTc change >30 msec", "value": 23},
      {"measurement": "Low QT, - test (number of individuals)", "setting": "[1]", "value": 42},
      {"measurement": "Low QT, + test (number of individuals)", "setting": "[1]", "value": 22},
      {"measurement": "Low QT, - test (number of individuals)", "setting": "[2]", "value": 62},
      {"measurement": "Low QT, + test (number of individuals)", "setting": "[2]", "value": 41},
      {"measurement": "Low QT, - test (number of individuals)", "setting": "[3]", "value": 76},
      {"measurement": "Low QT, + test (number of individuals)", "setting": "[3]", "value": 71}
    ]}
  ]
}
